The structures appear in SMILES notation.

The test concerns the target T1, human EP3 receptor (Homo sapiens, UniProt P43115).
T1 construct: expressed in transfected cells; host or cells: CHO K1 (Chinese Hamster Ovary), stably co-transfected with Galpha16 and mitochondrial clytin
T1 sequence (P43115 1-390): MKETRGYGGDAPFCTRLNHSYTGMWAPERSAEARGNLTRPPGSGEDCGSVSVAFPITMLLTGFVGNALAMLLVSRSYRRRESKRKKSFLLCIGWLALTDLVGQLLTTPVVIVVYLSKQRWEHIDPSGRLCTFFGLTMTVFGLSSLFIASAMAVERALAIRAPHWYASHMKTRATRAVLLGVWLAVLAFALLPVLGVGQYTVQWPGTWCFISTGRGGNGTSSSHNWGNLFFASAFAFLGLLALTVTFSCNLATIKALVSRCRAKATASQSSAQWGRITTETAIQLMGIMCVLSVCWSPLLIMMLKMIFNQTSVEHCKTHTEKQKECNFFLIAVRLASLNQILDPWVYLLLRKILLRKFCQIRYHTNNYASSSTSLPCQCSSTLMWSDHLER
The test is described as follows: Cellular in vitro assay for determining EP3 receptor activity (human EP3 cell line, sulprostone-stimulated calcium luminescence). It is filed as cell-based. To be noted: CHO cells expressing human EP3 and mitochondrial Clytin; antagonist mode, sulprostone at EC50; read-out: EP3 CHO mtCLY ANTAG IC50. Summed up: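 CHO K1 cells stably expressing human EP3 with Gα16 and mitochondrial Clytin, loaded overnight with coelenterazine. Compounds added 10 min before sulprostone at its EC50; antagonism read immediately as reduced calcium-driven luminescence, quadruplicate points.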
As a reminder, the IC50 is the concentration needed to halve the response being measured. On to `C[C@H](NC(=O)c1nn2cc(-c3cc(F)c(Cl)c(F)c3)[nH]c(=O)c2c1C1CC1)C1CC1` [6-472], for which the half-inhibitory concentration (IC50) was determined as 1.16 nM. For the molecule `Cc1c(C(=O)NC2(c3ccc(Cl)cc3)CCC2)nn2c(C)c(-c3ccc4ccccc4c3)[nH]c(=O)c12` [Example 3-32, N-[1-(4-Chlorophenyl)cyclobutyl]-3,7-dimethyl-6-(naphthalen-2-yl)-4-oxo-4,5-dihydropyrazolo[1,5-a]pyrazine-2-carboxamide], the half-inhibitory concentration (IC50) worked out at 5.8 nM.

As to `Cc1ccc(-c2cn3nc(C(=O)N[C@@H](c4ccc(F)cc4)C(C)(C)O)c(C)c3c(=O)[nH]2)cc1Cl` [Example 1-148, 6-(3-Chloro-4-methylphenyl)-N-[(1S)-1-(4-fluorophenyl)-2-hydroxy-2-methylpropyl]-3-methyl-4-oxo-4,5-dihydropyrazolo[1,5-a]pyrazine-2-carboxamide], the IC50 was 1.33 nM.

With `CCn1cc(Cl)c(CNC(=O)c2nn3cc(-c4cnc5cccc(C)c5c4)[nH]c(=O)c3c2C(C)C)n1` [Example 4-23, N-[(4-Chloro-1-ethyl-1H-pyrazol-3-yl)methyl]-6-(5-methylquinolin-3-yl)-4-oxo-3-(propan-2-yl)-4,5-dihydropyrazolo[1,5-a]pyrazine-2-carboxamide], the IC50 turned out to be 1.01 nM. With `CC[C@@H](C)NC(=O)c1nn2cc(-c3ccc(C)c(Cl)c3)[nH]c(=O)c2c1C` [Example 1-149, N-[(2R)-Butan-2-yl]-6-(3-chloro-4-methylphenyl)-3-methyl-4-oxo-4,5-dihydropyrazolo[1,5-a]-pyrazine-2-carboxamide] the figure was 2.33 nM; with `CN1CC(NC(=O)c2cc3c(=O)[nH]c(-c4ccc5c(c4)CCCC5)cn3n2)(c2ccc(F)cc2)C1` [Example 1-99, N-[3-(4-Fluorophenyl)-1-methylazetidin-3-yl]-4-oxo-6-(5,6,7,8-tetrahydronaphthalen-2-yl)-4,5-dihydropyrazolo[1,5-a]pyrazine-2-carboxamide], 4 nM.

With `Cc1cc(-c2cn3nc(C(=O)N[C@@H](C)C4CC4)c(C4CC4)c3c(=O)[nH]2)ccc1Cl` [6-296], the IC50 turned out to be 1.6 nM. Regarding `CC[C@@H](C)NC(=O)c1nn2cc(-c3ccc(C)c(Cl)c3)[nH]c(=O)c2c1C(F)(F)F` [Example 1-152, N-[(2R)-Butan-2-yl]-6-(3-chloro-4-methylphenyl)-4-oxo-3-(trifluoromethyl)-4,5-dihydropyrazolo-[1,5-a]pyrazine-2-carboxamide], the IC50 is 2.1 nM. The same measure for `Cc1ccc(-c2cn3nc(C(=O)NC(c4ccc(F)cc4)C4(O)CC4)c(C4CC4)c3c(=O)[nH]2)cc1F` (racemic) [6-381]: 1.52 nM; for `CC[C@@H](C)NC(=O)c1nn2cc(-c3ccc(C)c(Cl)c3)[nH]c(=O)c2c1C1CC1` [6-271]: 0.87 nM. For `Cc1ccc(-c2cn3nc(C(=O)NC4(c5ccc(F)cc5)CCN(C)C4)cc3c(=O)[nH]2)cc1C` (single isomer, unassigned) [6-364], the 50% inhibitory concentration (IC50) is 6.45 nM. Take `Cc1ccc(-c2cn3nc(C(=O)NC(C)c4ccc(O)cc4)cc3c(=O)[nH]2)cc1C` (single isomer, unassigned) [6-349]: the IC50 was determined as 0.88 nM. For `COc1ccc(C2(NC(=O)c3nn4cc(-c5ccc6c(c5)OCCO6)[nH]c(=O)c4c3C3CC3)CN(C)C2)cc1` [6-464], the concentration for half-maximal inhibition (IC50) turned out to be 3.6 nM. With `O=C(NC1CCN(CC(F)F)C1)c1nn2cc(-c3ccc4ccccc4c3)[nH]c(=O)c2c1C(F)(F)F` (stereo not drawn) [6-518] the figure was 1.7 nM; with `Cc1[nH]c2ccc(CNC(=O)c3nn4cc(-c5cnc6cccc(C)c6c5)[nH]c(=O)c4c3C(C)C)cc2c1C` [Example 4-10, N-[(2,3-Dimethyl-1H-indol-5-yl)methyl]-6-(5-methylquinolin-3-yl)-4-oxo-3-(propan-2-yl)-4,5-dihydropyrazolo[1,5-a]pyrazine-2-carboxamide], 2 nM; with `C[C@H](NC(=O)c1cc2c(=O)[nH]c(-c3ccc4ccccc4c3)cn2n1)c1cccc2ccccc12` [Example 2-6], 8.75 nM. Consider `N#Cc1c(C(=O)NCCn2ccc(C3CC3)n2)nn2cc(-c3ccc4ccccc4c3)[nH]c(=O)c12` [Example 3-77, 3-Cyano-N-[2-(3-cyclopropyl-1H-pyrazol-1-yl)ethyl]-6-(naphthalen-2-yl)-4-oxo-4,5-dihydropyrazolo[1,5-a]pyrazine-2-carboxamide], for which the IC50 came to 4.65 nM. On to `O=C(NC(c1ccc(F)cc1)C1(O)CC1)c1nn2cc(-c3ccc(Cl)c(F)c3)[nH]c(=O)c2c1C1CC1` (single isomer, unassigned) [6-97], for which the IC50 was 3.25 nM. Consider `Cc1ccc(-c2cn3nc(C(=O)N[C@@H](c4ccccc4)C(C)(C)O)cc3c(=O)[nH]2)cc1C` [Example 1-54, 6-(3,4-Dimethylphenyl)-N-[(1S)-2-hydroxy-2-methyl-1-phenylpropyl]-4-oxo-4,5-dihydropyrazolo-[1,5-a]pyrazine-2-carboxamide], for which the IC50 amounted to 3.65 nM.

With `Cc1ccc(-c2cn3nc(C(=O)N[C@H](C)c4ccc(F)cc4)cc3c(=O)[nH]2)cc1C` [6-36], the half-maximal inhibitory concentration (IC50) is 1.2 nM. On to `Cc1ccc(-c2cn3nc(C(=O)NCC(O)C(F)(F)F)c(C4CC4)c3c(=O)[nH]2)cc1C` (single isomer, unassigned) [6-436], for which the concentration for half-maximal inhibition (IC50) was 0.84 nM. In the case of `Cc1cc(-c2cn3nc(C(=O)N[C@@H](C)C4CC4)c(C4CC(F)(F)C4)c3c(=O)[nH]2)ccc1Cl` [6-558], the IC50 is 1.15 nM. For the molecule `Cc1ccc(-c2cn3nc(C(=O)N[C@@H](c4ccccc4)C(C)(C)O)c(C(F)(F)F)c3c(=O)[nH]2)cc1F` [6-143], the IC50 was 4.35 nM. Take `CN1CC(NC(=O)c2nn3cc(-c4ccc(Cl)c(F)c4)[nH]c(=O)c3c2C2CC2)(c2ccc(F)cc2)C1` [Example 1-169, 6-(4-Chloro-3-fluorophenyl)-3-cyclopropyl-N-[3-(4-fluorophenyl)-1-methylazetidin-3-yl]-4-oxo-4,5-dihydropyrazolo[1,5-a]pyrazine-2-carboxamide]: the IC50 is 3.35 nM. As for `O=C(NCC(O)(C(F)(F)F)C(F)(F)F)c1nn2cc(-c3ccc(Cl)c(F)c3)[nH]c(=O)c2c1C1CC1` [6-88], the IC50 was 4.55 nM. Consider `Cc1cc(-c2cn3nc(C(=O)N[C@@H](c4ccc(F)cc4)C(C)(C)O)c(C4CC4)c3c(=O)[nH]2)ccc1C(F)(F)F` [Example 1-132, 3-Cyclopropyl-N-[(1S)-1-(4-fluorophenyl)-2-hydroxy-2-methylpropyl]-6-[3-methyl-4-(trifluoromethyl)phenyl]-4-oxo-4,5-dihydropyrazolo[1,5-a]pyrazine-2-carboxamide], for which the 50% inhibitory concentration (IC50) amounted to 4.05 nM.

As to `CCn1cc(CNC(=O)c2nn3cc(-c4ccc5ccccc5c4)[nH]c(=O)c3c2C(F)(F)F)c(C)n1` [6-496], the IC50 worked out at 1.2 nM. With `O=C(NC(CO)c1ccc2c(c1)OCO2)c1cc2c(=O)[nH]c(-c3ccc4ccccc4c3)cn2n1` (stereo not drawn) [Example 2-28, N-[1-(1,3-Benzodioxol-5-yl)-2-hydroxyethyl]-6-(2-naphthyl)-4-oxo-4,5-dihydropyrazolo[1,5-a]pyrazine-2-carboxamide] the figure was 0.93 nM; with `COc1ccc(C(C)NC(=O)c2nn3cc(-c4cnc5cccc(C)c5c4)[nH]c(=O)c3c2C(C)C)cc1F` (stereo not drawn) [Example 4-71, N-[1-(3-Fluoro-4-methoxyphenyl)ethyl]-3-isopropyl-6-(5-methyl-3-quinolyl)-4-oxo-5H-pyrazolo[1,5-a]pyrazine-2-carboxamide], 2.4 nM; with `O=C(NCC(O)C(F)(F)F)c1nn2cc(-c3ccc4c(c3)OCCO4)[nH]c(=O)c2c1C1CC1` (racemic) [6-465], 1.75 nM. On to `Cc1nc(-c2cn3nc(C(=O)N[C@@H](c4ccc(F)cc4)C(F)(F)CO)c(C4CC4)c3c(=O)[nH]2)ccc1Cl` [6-591], for which the 50% inhibitory concentration (IC50) turned out to be 1.3 nM. On to `Cc1ccc(-c2cn3nc(C(=O)N[C@@H](C)CCO)c(C4CC4)c3c(=O)[nH]2)cc1Cl` [6-270], for which the 50% inhibitory concentration (IC50) is 2.67 nM. With `Cc1cc(CNC(=O)c2nn3c(C)c(-c4ccc5ccccc5c4)[nH]c(=O)c3c2C)on1` [Example 3-15, 3,7-Dimethyl-N-[(3-methyl-1,2-oxazol-5-yl)methyl]-6-(naphthalen-2-yl)-4-oxo-4,5-dihydropyrazolo[1,5-a]pyrazine-2-carboxamide] the figure was 9.55 nM; with `CC(C)(O)[C@@H](NC(=O)c1nn2cc(-c3ccc(Cl)c(C(F)F)c3)[nH]c(=O)c2c1C1CC1)c1ccc(F)cc1` [6-666], 1.4 nM; with `CC(C)(O)[C@@H](NC(=O)c1nn2cc(-c3cc(Cl)c(Cl)cc3F)[nH]c(=O)c2c1C1CC1)c1ccc(F)cc1` [6-583], 0.63 nM. For `CCn1nccc1C(C)NC(=O)c1nn2c(C)c(-c3ccc4ccccc4c3)[nH]c(=O)c2c1C` (stereo not drawn) [Example 3-12, N-[1-(1-Ethyl-1H-pyrazol-5-yl)ethyl]-3,7-dimethyl-6-(2-naphthyl)-4-oxo-4,5-dihydropyrazolo[1,5-a]pyrazine-2-carboxamide], the 50% inhibitory concentration (IC50) stood at 1.75 nM. Take `Cc1cccc2ncc(-c3cn4nc(C(=O)NC(c5ccccc5)C(F)F)c(C(C)C)c4c(=O)[nH]3)cc12` (stereo not drawn) [Example 4-68, N-(2,2-Difluoro-1-phenylethyl)-3-isopropyl-6-(5-methyl-3-quinolyl)-4-oxo-5H-pyrazolo[1,5-a]pyrazine-2-carboxamide]: the IC50 worked out at 3 nM. `Cc1ccc(-c2cn3nc(C(=O)N[C@@H](c4ccc(F)cc4)C(C)(C)O)c(C4CC4)c3c(=O)[nH]2)cc1C(F)(F)F` [6-246]: the IC50 is 5.8 nM.

Consider `CC[C@H](C)NC(=O)c1nn2cc(-c3ccc(C)c(Cl)c3)[nH]c(=O)c2c1C1CC1` [6-282], for which the concentration for half-maximal inhibition (IC50) turned out to be 1.6 nM.
